Experimental data from US8937092B2, “Aryl or N-heteroaryl substituted methanesulfonamide derivatives as vanilloid receptor ligands” (Gruenenthal GmbH, priority 2011, dated 2015).

Molecular target: vanilloid receptor 1 (VR1/TRPV1 receptor) (Homo sapiens, UniProt Q8NER1)
Test: Functional FLIPR Ca2+ influx assay on vanilloid receptor 1, capsaicin (Cap) stimulus
Assay type: cell-based
Details: for Ki: Ki from IC50 by Cheng-Prusoff, read-out: (f) Ki (human being) [nM], Cap; for inhibition at 5 µM: read-out: (f) inhibition (human being), Cap, @5 μM
Procedure: Furthermore, preference may be given to compounds according to the invention that cause a 50 percent displacement of capsaicin, which is present at a concentration of 100 nM, in a FLIPR assay with CHO K1 cells which were transfected with the human VR1 gene at a concentration of less than 2,000 nM, preferably less than 1,000 nM, particularly preferably less than 300 nM, most particularly preferably less than 100 nM, even more preferably less than 75 nM, additionally preferably less than 50 nM, most preferably less than 10 nM.
In the process, the Ca^2+ influx is quantified in the FLIPR assay with the aid of a Ca^2+-sensitive dye (type Fluo-4, Molecular Probes Europe BV, Leiden, the Netherlands) in a fluorescent imaging plate reader (FLIPR, Molecular Devices, Sunnyvale, USA), as described hereinafter.
Pharmacological Methods I. Functional Testing Carried Out on the Vanilloid Receptor 1 (VRI/TRPV1 Receptor) […]
The number of cells in the suspension is set to 3×10^5 per mL and 150 μL of this suspension are in each case introduced into a recess in the cell culture plates coated as described hereinbefore. In the incubator the plates are left for two to three days at 37° C., 5% by volume of CO2 and 95% relative humidity. Subsequently, the cells are loaded with 2 μM of Fluo-4 and 0.01% by volume of Pluronic F127 (Molecular Probes Europe BV, Leiden, the Netherlands) in HBSS buffer (Hank's buffered saline solution, Gibco Invitrogen GmbH, Karlsruhe, Germany) for 30 min at 37° C., washed 3 times with HBSS buffer and after further incubation for 15 minutes at room temperature used for Ca^2+ measurement in a FLIPR assay. The Ca^2+-dependent fluorescence is in this case measured before and after the addition of substances (λex=488 nm, λem=540 nm). Quantification is carried out by measuring the highest fluorescence intensity (FC, fluorescence counts) over time.
The FLIPR protocol consists of 2 substance additions. First the compounds to be tested (10 μM) are pipetted onto the cells and the Ca^2+ influx is compared with the control (capsaicin 10 μM). This provides the result in % activation based on the Ca^2+ signal after the addition of 10 μM of capsaicin (CP). After 5 minutes' incubation, 100 nM of capsaicin are applied and the Ca^2+ influx is also determined.
Desensitising agonists and antagonists lead to suppression of the Ca^2+ influx. The % inhibition is calculated compared to the maximum achievable inhibition with 10 μM of capsazepine.
Triple analyses (n=3) are carried out and repeated in at least 3 independent experiments (N=4).
Starting from the percentage displacement caused by different concentrations of the compounds to be tested of general formula I, IC50 inhibitory concentrations which cause a 50-percent displacement of capsaicin were calculated. K, values for the test substances were obtained by conversion by means of the Cheng-Prusoff equation (Cheng, Prusoff; Biochem. Pharmacol. 22, 3099-3108, 1973).
The affinity of the compounds according to the invention for the vanilloid receptor 1 (VR1/TRPV1 receptor) was determined as described herein before (pharmacological method I).
The value after the “@” symbol indicates the concentration at which the inhibition (as a percentage) was respectively determined.

Row | Ki [nM] | Compound | also measured
1 | 23 | CCS(=O)(=O)NCc1ccc(NC(=O)NCc2ccc(C(F)(F)F)nc2-c2cccc(C)c2)cc1 [Example 82, N-(4-(3-((2-m-tolyl-6-(trifluoromethyl)pyridin-3-yl)methyl)ureido)benzyl)ethanesulfonamide] | –
2 | 72 | COc1ccc(-c2nc(C(F)(F)F)ccc2CNC(=O)C(C)c2ccc(CNS(C)(=O)=O)c(F)c2)cn1 (stereo not shown) [Example 68, 2-(3-fluoro-4-(methylsulfonamidomethyl)phenyl)-N-((6′-methoxy-6-(trifluoromethyl)-2,3′-bipyridin-3-yl)methyl)propanamide] | –
3 | 26 | Cc1ccc(-c2nc(C(F)(F)F)ccc2CNC(=O)C(C)c2ccc(CNS(C)(=O)=O)c(F)c2)cc1F (stereo not shown) [Example 13, 2-(3-fluoro-4-(methylsulfonamidomethyl)phenyl)-N-((2-(3-fluoro-4-methylphenyl)-6-(trifluoromethyl)pyridin-3-yl)methyl)propanamide] | –
4 | 42 | CC(C(=O)NCc1ccc(C(F)(F)F)nc1-c1cc(F)ccc1F)c1ccc(CNS(C)(=O)=O)c(F)c1 (stereo not shown) [Example 12, N-((2-(2,5-difluorophenyl)-6-(trifluoromethyl)pyridin-3-yl)methyl)-2-(3-fluoro-4-(methylsulfonamidomethyl)phenyl)propanamide] | –
5 | – | Cc1ccc(C)c(-c2nc(C(F)(F)F)ccc2CNC(=O)C(C)c2ccc(CNS(C)(=O)=O)c(F)c2)c1 (stereo not shown) [Example 33, N-((2-(2,5-dimethylphenyl)-6-(trifluoromethyl)pyridin-3-yl)methyl)-2-(3-fluoro-4-(methylsulfonamidomethyl)phenyl)propanamide] | inhibition at 5 µM: 35%
6 | 10 | Cc1cccc(-c2nc(C(F)(F)F)ccc2CNC(=O)Nc2ccc(CNS(C)(=O)=O)c(F)c2)c1 [Example 27, N-(2-fluoro-4-(3-((2-m-tolyl-6-(trifluoromethyl)pyridin-3-yl)methyl)ureido)benzyl)methanesulfonamide] | –
7 | 59 | COc1ccc(-c2nc(C(F)(F)F)ccc2CNC(=O)C(C)c2ccc(CNS(C)(=O)=O)c(F)c2)cc1 (stereo not shown) [Example 62, 2-(3-fluoro-4-(methylsulfonamidomethyl)phenyl)-N-((2-(4-methoxyphenyl)-6-(trifluoromethyl)pyridin-3-yl)methyl)propanamide] | –
8 | 7 | Cc1cccc(-c2nc(C(F)(F)F)ccc2CNC(=O)Nc2ccc(CNS(C)(=O)=O)c(C)c2)c1 [Example 81, N-(2-methyl-4-(3-((2-m-tolyl-6-(trifluoromethyl)pyridin-3-yl)methyl)ureido)benzyl)methanesulfonamide] | –
9 | 41 | CC(C(=O)NCc1ccc(C(F)(F)F)nc1-c1cc(F)cc(F)c1)c1ccc(CNS(C)(=O)=O)c(F)c1 (stereo not shown) [Example 11, N-((2-(3,5-difluorophenyl)-6-(trifluoromethyl)pyridin-3-yl)methyl)-2-(3-fluoro-4-(methylsulfonamidomethyl)phenyl)propanamide] | –
10 | 68 | COc1cc(NC(=O)NCc2ccc(C(F)(F)F)nc2-c2cccc(C)c2)ccc1CNS(C)(=O)=O [Example 80, N-(2-methoxy-4-(3-((2-m-tolyl-6-(trifluoromethyl)pyridin-3-yl)methyl)ureido)benzyl)methanesulfonamide] | –
11 | – | Cc1ccccc1-c1nc(C(F)(F)F)ccc1CNC(=O)C(C)c1ccc(CNS(C)(=O)=O)c(F)c1 (stereo not shown) [Example 19, 2-(3-fluoro-4-(methylsulfonamidomethyl)phenyl)-N-((2-o-tolyl-6-(trifluoromethyl)pyridin-3-yl)methyl)propanamide] | inhibition at 1 µM (inhibition at 1 μM, read-out: (f) inhibition (human being), Cap, @1 μM): 18%
12 | 2 | CC(C)c1cccc(-c2nc(C(F)(F)F)ccc2CNC(=O)C(C)c2ccc(CNS(C)(=O)=O)c(F)c2)c1 (stereo not shown) [Example 50, 2-(3-fluoro-4-(methylsulfonamidomethyl)phenyl)-N-((2-(3-isopropylphenyl)-6-(trifluoromethyl)pyridin-3-yl)methyl)propanamide] | –
13 | 35 | COc1ccc(-c2nc(C(F)(F)F)ccc2CNC(=O)C(C)c2ccc(CNS(C)(=O)=O)c(F)c2)cc1C (stereo not shown) [Example 43, 2-(3-fluoro-4-(methylsulfonamidomethyl)phenyl)-N-((2-(4-methoxy-3-methylphenyl)-6-(trifluoromethyl)pyridin-3-yl)methyl)propanamide] | –
14 | – | Cc1ccc(-c2nc(C(F)(F)F)ccc2CNC(=O)C(C)c2ccc(CNS(C)(=O)=O)c(F)c2)cn1 (stereo not shown) [Example 72, 2-(3-fluoro-4-(methylsulfonamidomethyl)phenyl)-N-((6′-methyl-6-(trifluoromethyl)-2,3′-bipyridin-3-yl)methyl)propanamide] | inhibition at 5 µM: 27%
15 | 27 | Cc1cccc(-c2nc(C(F)(F)F)ccc2CNC(=O)C(C)c2ccc(CNS(C)(=O)=O)c(F)c2)c1F (stereo not shown) [Example 34, N-((2-(2-fluoro-3-methylphenyl)-6-(trifluoromethyl)pyridin-3-yl)methyl)-2-(3-fluoro-4-(methylsulfonamidomethyl)phenyl)propanamide] | –
16 | 61 | CC(C(=O)NCc1ccc(C(F)(F)F)nc1-c1cccc(F)c1)c1ccc(CNS(C)(=O)=O)c(F)c1 (stereo not shown) [Example 7, 2-(3-fluoro-4-(methylsulfonamidomethyl)phenyl)-N-((2-(3-fluorophenyl)-6-(trifluoromethyl)pyridin-3-yl)methyl)propanamide] | –
17 | 31 | CC(C(=O)NCc1ccc(C(F)(F)F)nc1-c1ccccc1)c1ccc(CNS(C)(=O)=O)c(F)c1 (stereo not shown) [Example 5, 2-(3-fluoro-4-(methylsulfonamidomethyl)phenyl)-N-((2-phenyl-6-(trifluoromethyl)pyridin-3-yl)methyl)propanamide] | –
18 | – | Cc1cccc(-c2nc(C(F)(F)F)ccc2CNC(=O)C(C)c2cccc(CNS(C)(=O)=O)c2)c1 (stereo not shown) [Example 1, 2-(3-(methylsulfonamidomethyl)phenyl)-N-((2-m-tolyl-6-(trifluoromethyl)pyridin-3-yl)methyl)propanamide] | inhibition at 5 µM: 44%
19 | 32 | Cc1ccc(-c2nc(C(F)(F)F)ccc2CNC(=O)C(C)c2ccc(CNS(C)(=O)=O)c(F)c2)cc1 (stereo not shown) [Example 29, 2-(3-fluoro-4-(methylsulfonamidomethyl)phenyl)-N-((2-p-tolyl-6-(trifluoromethyl)pyridin-3-yl)methyl)propanamide] | –
20 | – | Cc1cccc(-c2nc(C(F)(F)F)ccc2CNC(=O)[C@H](C)c2ccc(CNS(C)(=O)=O)c(F)c2)c1 [Example 26, (R)-2-(3-fluoro-4-(methylsulfonamidomethyl)phenyl)-N-((2-m-tolyl-6-(trifluoromethyl)pyridin-3-yl)methyl)propanamide] | inhibition at 5 µM: 33%
21 | 23 | Cc1cccc(-c2cc(C(F)(F)F)ccc2CNC(=O)C(C)c2ccc(CNS(C)(=O)=O)c(F)c2)c1 (stereo not shown) [Example 22, 2-(3-fluoro-4-(methylsulfonamidomethyl)phenyl)-N-((3′-methyl-5-(trifluoromethyl)biphenyl-2-yl)methyl)propanamide] | –
22 | 24 | Cc1cccc(-c2nc(C(C)(C)C)ccc2CNC(=O)C(C)c2ccc(CNS(C)(=O)=O)c(F)c2)c1 (stereo not shown) [Example 23, N-((6-tert-butyl-2-m-tolylpyridin-3-yl)methyl)-2-(3-fluoro-4-(methylsulfonamidomethyl)phenyl)propanamide] | –
23 | – | Cc1ncccc1-c1nc(C(F)(F)F)ccc1CNC(=O)C(C)c1ccc(CNS(C)(=O)=O)c(F)c1 (stereo not shown) [Example 71, 2-(3-fluoro-4-(methylsulfonamidomethyl)phenyl)-N-((2′-methyl-6-(trifluoromethyl)-2,3′-bipyridin-3-yl)methyl)propanamide] | inhibition at 5 µM: 19%
24 | 10 | Cc1cccc(-c2nc(C(F)(F)F)ccc2CNC(=O)Nc2ccc(CNS(C)(=O)=O)cc2)c1 [Example 2, N-(4-(3-((2-m-tolyl-6-(trifluoromethyl)pyridin-3-yl)methyl)ureido)benzyl)methanesulfonamide] | –
25 | 66 | Cc1cccc(-c2nc(C(F)(F)F)ccc2CNC(=O)C(C)c2ccc(CNS(C)(=O)=O)cc2)c1 (stereo not shown) [Example 4, 2-(4-(methylsulfonamidomethyl)phenyl)-N-((2-m-tolyl-6-(trifluoromethyl)pyridin-3-yl)methyl)propanamide] | –
